# Laboratory results published in ChEMBL document CHEMBL1140261, “Novel 1-[2-(diarylmethoxy)ethyl]-2-methyl-5-nitroimidazoles as HIV-1 non-nucleoside reverse transcriptase inhibitors. A structure-activity relationship investigation” (J Med Chem, 2005).
# Legend:
# MT4 [1] = experiment: Concentration required to protect MT-4 cells from HIV-1 induced cytopathogenicity by 50%; determined by MTT method; format: functional, cell-based; settings: Homo sapiens
# MT4 [2] = experiment: (§1) Selective index as the ratio of CC50 and EC50; format: functional
# MT4 [3] = experiment: Concentration required to reduce the viability of mock-infected cells by 50%; determined by MTT method.; format: functional; settings: Homo sapiens
# [4] = system: Human immunodeficiency virus type 1 reverse transcriptase (Human immunodeficiency virus 1), Q72547 [R221A]
# Description: Dose required to inhibit HIV-1 reverse transcriptase activity (Y188L mutant) by 50%
# [5] = system: Human immunodeficiency virus type 1 reverse transcriptase (Human immunodeficiency virus 1), Q72547 [L100I]
# Description: Dose required to inhibit HIV-1 reverse transcriptase activity ( L100I mutant) by 50%
# [6] = system: Human immunodeficiency virus type 1 reverse transcriptase (Human immunodeficiency virus 1), Q72547 [K103N]
# [7] = system: Human immunodeficiency virus type 1 reverse transcriptase (Human immunodeficiency virus 1), Q72547 [V179D]
# Description: Dose required to inhibit HIV-1 reverse transcriptase activity (V179D mutant) by 50%
# [8] = system: Human immunodeficiency virus type 1 reverse transcriptase (Human immunodeficiency virus 1), Q72547 [Y181I]
# [9] = target: Human immunodeficiency virus type 1 reverse transcriptase (Human immunodeficiency virus 1) (UniProt Q72547)
# Description: Dose required to inhibit HIV-1 reverse transcriptase activity (wild-type) by 50%
# [10] = target: Human immunodeficiency virus type 1 reverse transcriptase (Human immunodeficiency virus 1) (UniProt Q72547); experiment: Dose required to inhibit HIV-1 reverse transcriptase activity of wild-type enzyme by 50%
# [11] = target: T1, Human immunodeficiency virus type 1 reverse transcriptase (Human immunodeficiency virus 1, UniProt Q72547); experiment: Concentration required to inhibit HIV-1 reverse transcriptase activity of wild-type enzyme; format: functional
# MT4 [12] = experiment: as §1; format: functional, Human immunodeficiency virus 1
# [13] = target: T1, Human immunodeficiency virus type 1 reverse transcriptase; experiment: Concentration required to inhibit HIV-1 reverse transcriptase activity (wild-type) enzyme
# [14] = system: Human immunodeficiency virus type 1 reverse transcriptase (Human immunodeficiency virus 1), Q72547 [K103N]; experiment: Dose required to inhibit HIV-1 reverse transcriptase activity (K103N mutant) by 50%
# [15] = system: Human immunodeficiency virus type 1 reverse transcriptase (Human immunodeficiency virus 1), Q72547 [L100I]; experiment: Dose required to inhibit HIV-1 reverse transcriptase activity (L100I mutant) by 50%
# [16] = target: T1, Human immunodeficiency virus type 1 reverse transcriptase; experiment: Concentration required to inhibit HIV-1 reverse transcriptase activity (wild-type) by 50%; format: functional
Structure (SMILES),EC50 (MT4 [1]) [µM],SI (MT4 [2]),CC50 (MT4 [3]) [µM],further results
Cc1ncc([N+](=O)[O-])n1CCOCc1ccccc1,4.2,>2.38,> 100,–
Cc1ncc([N+](=O)[O-])n1CCOC(c1ccccc1)c1ccc2ccccc2c1 (stereo unspecified),> 100,–,> 100,–
Cc1ncc([N+](=O)[O-])n1CCSC(c1ccccc1)c1ccccc1Cl (stereo unspecified),12,>8.3,> 100,–
Cc1ncc([N+](=O)[O-])n1CCOC(c1ccccc1)c1cccnc1 (stereo unspecified),0.08,>1250,> 100,–
O=[N+]([O-])c1cncn1CCOC(c1ccccc1)c1ccccc1,> 100,–,> 100,–
Cc1ncc([N+](=O)[O-])n1CCNC(c1ccccc1)c1cccc(F)c1 (stereo unspecified),1.8,>55.6,> 100,–
Cc1ccnc2c1NC(=O)c1cccnc1N2C1CC1,–,–,–,ID50 [4]: 18 µM; ID50 [5]: 9 µM; ID50 [6]: 7 µM; ID50 [7]: 0.3 µM; ID50 [8]: 36 µM; ID50 [9]: 0.4 µM
Cc1ncc([N+](=O)[O-])n1CCNC(c1ccccc1)c1ccc(F)cc1 (stereo unspecified),92,>1.1,> 100,–
Cc1ncc([N+](=O)[O-])n1CCNC(c1ccccc1)c1ccccc1F (stereo unspecified),50,>2,> 100,–
Cc1ncc([N+](=O)[O-])n1CCSC(c1ccccc1)c1ccccc1,1.2,>83.5,> 100,ID50 [10]: 10.6%; EC50 [11]: 2.3 µM
Cc1ncc([N+](=O)[O-])n1CCOC(c1ccccc1)c1ccc(Cl)s1 (stereo unspecified),1.2,8.33,> 100,–
Cc1ncc([N+](=O)[O-])n1CCSC(c1ccccc1)c1cccc(F)c1 (stereo unspecified),80,>1.2,> 100,–
Cc1ncc([N+](=O)[O-])n1CCOC(c1ccccc1)C1CCCCC1 (stereo unspecified),0.3,>333.3,> 100,–
Cc1ncc([N+](=O)[O-])n1CCNCc1ccccc1,> 100,–,> 100,–
Cc1ncc([N+](=O)[O-])n1CCSC(c1ccccc1)c1ccccc1F (stereo unspecified),5,>20,> 100,–
Cc1ncc([N+](=O)[O-])n1CCOC(c1cccc(F)c1)c1cccs1 (stereo unspecified),0.14,>714,> 100,–
Cc1ncc([N+](=O)[O-])n1CCNC(c1ccccc1)c1cccc(Cl)c1 (stereo unspecified),2.1,>47.6,> 100,–
Cc1ncc([N+](=O)[O-])n1CCOC(c1cccs1)c1ccccc1Cl (stereo unspecified),1.9,>52.6,> 100,–
Cc1ncc([N+](=O)[O-])n1CCOC(c1ccc(F)cc1)c1cccs1 (stereo unspecified),3.1,>32.3,> 100,–
Cc1cccc(C(NCCn2c([N+](=O)[O-])cnc2C)c2ccccc2)c1 (stereo unspecified),65,>1.5,> 100,–

Structure (SMILES),EC50 (MT4 [1]) [µM],SI (MT4 [2]),CC50 (MT4 [3]) [µM],further results
Cc1ncc([N+](=O)[O-])n1CCSCc1ccccc1,60,>1.7,> 100,–
Cc1ncc([N+](=O)[O-])n1CCOC(c1ccccc1)c1cccs1 (stereo unspecified),0.03,–,> 100,SI (MT4 [12]): >3333; EC50 [13]: 0.03 µM; ID50 [4]: 30.2 µM; ID50 [5]: 5.5 µM; ID50 [6]: 8.25 µM; ID50 [7]: 1.9 µM; ID50 [8]: > 50 µM; ID50 [9]: 0.37 µM
Cc1ccc(C(OCCn2c([N+](=O)[O-])cnc2C)c2cccs2)cc1 (stereo unspecified),0.3,>3333,> 100,–
Cc1ncc([N+](=O)[O-])n1CCOC(c1cccs1)c1ccccc1F (stereo unspecified),0.12,>833,> 100,–
Cc1ncc([N+](=O)[O-])n1CCS(=O)(=O)C(c1ccccc1)c1ccccc1,5.2,>19.3,> 100,–
Cc1ncc([N+](=O)[O-])n1CCOC(c1cccs1)c1cccc(F)c1F (stereo unspecified),0.06,>1667,> 100,–
Cc1ccccc1C(OCCn1c([N+](=O)[O-])cnc1C)c1cccs1 (stereo unspecified),0.45,204,92,–
Cc1ccc(C(NCCn2c([N+](=O)[O-])cnc2C)c2ccccc2)cc1 (stereo unspecified),44,>2.3,> 100,–
Cc1ncc([N+](=O)[O-])n1CCOC(c1ccccc1)c1ccco1 (stereo unspecified),0.1,>840,> 100,–
Cc1nc([N+](=O)[O-])cn1CCOC(c1ccccc1)c1ccccc1,67,>1.5,> 100,–
Cc1ncc([N+](=O)[O-])n1CCOC(c1ccc(Cl)cc1)c1cccs1 (stereo unspecified),58,>1.7,> 100,–
Cc1cccc(C(SCCn2c([N+](=O)[O-])cnc2C)c2ccccc2)c1 (stereo unspecified),3,>33.3,> 100,–
Cc1ncc([N+](=O)[O-])n1CCOC(c1cccc(Cl)c1)c1cccs1 (stereo unspecified),0.08,900,72,ID50 [14]: 5.1 µM; ID50 [15]: 3.2 µM; ID50 [4]: 15.1 µM; ID50 [7]: 10.8 µM; ID50 [8]: 6.25 µM; ID50 [9]: 1.17 µM
O=[N+]([O-])c1cn(CCOC(c2ccccc2)c2ccccc2)cn1,78,>1.3,> 100,–
Cc1ncc([N+](=O)[O-])n1CCNC(c1ccccc1)c1ccccc1Cl (stereo unspecified),90,>1.1,> 100,–
Cc1ncc([N+](=O)[O-])n1CCOC(c1ccccc1)c1ccccc1,–,>500,> 100,–
Cc1nc([N+](=O)[O-])cn1CCOCc1ccccc1,22,>4.5,> 100,–
Cc1ncc([N+](=O)[O-])n1CCN(Cc1ccccc1)C1CCCCC1,84,>1.2,> 100,–
Cc1ncc([N+](=O)[O-])n1CCNC(c1ccccc1)c1ccccc1,12,>8.3,> 100,EC50 [16]: 8 µM; ID50 [9]: 16.5 µM
Cc1ncc([N+](=O)[O-])n1CCSC(c1ccccc1)c1cccc(Cl)c1 (stereo unspecified),64,>1.6,> 100,–
